Assay results from patent US8409581B2, “Compounds for treating amyloidoses” (Affiris AG, priority 2008, dated 2013).

Assays:
[1] = system: p1454 (unrelated sequence); experiment: Mimotope vaccination of mice, serum titer ELISA against irrelevant peptide; format: in vivo, C57/B16 mice; settings: 30 μg peptide-KLH, alum, s.c., FIG. 4
Experimental: (§1) Inhibiting as well as non-inhibiting peptides were coupled to KLH and injected into mice (wildtype C57/B16 mice; subcutaneous injection into the flank) together with an appropriate adjuvant (aluminium hydroxide). Animals were vaccinated 3-6 times in biweekly intervals and sera were taken biweekly as well. Titers to injected peptides, as well as to an irrelevant peptide were determined with every serum. Furthermore, titers against the recombinant human Aβ protein, and against original peptides were determined respectively. In general sera were analysed by reaction against peptides coupled to Bovine Serum Albumin (BSA) and recombinant full length proteins which were immobilised on ELISA plates. Titers were determined using anti mouse IgG specific antibodies. For detailed results see FIGS. 4, 5 and 6 respectively.
(§2) Female C57/b16 mice, 5-6 mice per group, were subcutaneously immunized with 30 μg peptide coupled to KLH. Control groups were administered original epitope-KLH conjugates respectively. As adjuvant alum was used (always 1 mg per mouse). […] The in vitro ELISA assay to determine the antibody titer was performed with sera of single mice after each vaccination in a two week interval (see FIGS. 6 and 7 respectively). Titers were calculated as OD max/2 in all figures shown. The wells of the ELISA plate were coated with mimotope-BSA conjugate and an irrelevant peptide-BSA conjugate (negative control). The positive control was performed by reaction of the parental antibody with the respective mimotope-BSA conjugate. The detection was performed with anti-mouse IgG. Additionally, recombinant proteins were immobilised on ELISA plates and sera reacted accordingly. FIGS. 4, 5 and 6 show representative examples for assays used to characterise mimotopes in vivo.

injected peptide = experiment: Mimotope vaccination of mice, serum titer ELISA against injected peptide; format: in vivo, C57/B16 mice; settings: 30 μg peptide-KLH, alum, s.c., FIG. 4
Experimental: as §1, §2

original epitope p4377 = experiment: Mimotope vaccination of mice, serum titer ELISA against original epitope; format: in vivo, C57/B16 mice; settings: 30 μg peptide-KLH, alum, s.c., FIG. 5
Experimental: as §1, §2

[2] = system: monoclonal antibody MV-002; experiment: In vitro binding assay (ELISA) of mimotopes to parental antibody; set-up: species or system mice; settings: peptide coupled to BSA bound to ELISA plates (1 μM); parental antibody MV-002
Experimental: 1. In Vitro Binding Assay (ELISA)
Peptides derived from Phage Display as well as variants thereof were coupled to BSA and bound to ELISA plates (1 μM; as indicated in the respective figures) and subsequently incubated with the monoclonal antibody that was used for the screening procedure to analyse binding capacity of identified peptides.

[3] = system: monoclonal antibody MV-002 binding to the original epitope; experiment: In vitro inhibition assay (ELISA); set-up: species or system mice; settings: for inhibition in in vitro inhibition/competition assay: MV-002, original epitope coated on ELISA plates; for Inhibition Capacity (competition code): OD at 5 ug peptide compared to original peptide, MV-002
Experimental: 2. In Vitro Inhibition Assay (ELISA)
Different amounts of peptides (concentrations ranging from 5 μg to 0.03 μg; serial dilutions), derived from Phage Display were incubated with the monoclonal antibody that was used for the screening procedure. Peptides diminishing subsequent binding of the antibody to the original epitope coated on ELISA plates were considered as inhibiting in this assay.

[4] = system: amyloid plaques (Aβ40/42) in brain; experiment: Area occupied by amyloid plaques in Tg2576 AD mouse model; format: in vivo; settings: Tg2576 mice

| Sequence | unspecific immune response against unrelated sequence (p1454) [1] | immune response against injected peptide (injected peptide) | immune response against the original epitope p4377 (original epitope p4377) | Binding Capacity (binding code; OD halfmax 1:X, dilution factor of the parental AB) [2] | inhibition in in vitro inhibition/competition assay [3] | Inhibition Capacity (competition code) [3] | reduction of area occupied by amyloid plaques following mimotope treatment ([4]; group 2 versus PBS-ALUM control) | average area occupied by amyloid plaques ([4]; peptide-KLH conjugate adsorbed to ALUM, s.c. 6 times at monthly intervals, mAb 3A5 staining, control 0.35%) |
| --- | --- | --- | --- | --- | --- | --- | --- | --- |
| EVHHQKLVFC [p4377, reference compound] | failed to induce a relevant unspecific immune response | elicited immune responses | mounted detectable immune responses | – | – | – | – | – |
| GEIWFEGC [p4680, MV-002 mimotope peptide] | failed to induce a relevant unspecific immune response | elicited immune responses | mounted detectable immune responses | 3 (strong binding :>320000) | active in in vitro inhibition assays | 2 (strong inhibition (as original epitope; OD of peptide below 2, 3 times of original peptide)) | – | – |
| GEIYFERC [p4681, MV-002 mimotope peptide] | failed to induce a relevant unspecific immune response | elicited immune responses | mounted detectable immune responses | 3 (strong binding :>320000) | active in in vitro inhibition assays | 2 (strong inhibition (as original epitope; OD of peptide below 2, 3 times of original peptide)) | – | – |
| HMRLFFNC [p4670, MV-002 mimotope peptide] | failed to induce a relevant unspecific immune response | elicited immune responses | mounted detectable immune responses | 3 (strong binding :>320000) | active in in vitro inhibition assays | 1 (Weaker than original epitope (OD of peptide below 4, 6 times of original peptide)) | – | – |
| HQKMIFAC [p4675, MV-002 mimotope peptide; used as KLH conjugate vaccine in Tg2576 mice] | failed to induce a relevant unspecific immune response | elicited immune responses | mounted detectable immune responses | 3 (strong binding :>320000) | active in in vitro inhibition assays | 2 (strong inhibition (as original epitope; OD of peptide below 2, 3 times of original peptide)) | 31% | 0.24% |
| SHTRLYFC [p4403, MV-002 mimotope peptide] | failed to induce a relevant unspecific immune response | elicited immune responses | mounted detectable immune responses | 1 (weak binding :<40000) | without inhibition capacity | – | – | – |
